# Source: patent US8933230B2, “Phosphorus-containing group-substituted quinoline, its preparation process, medical composition containing the compounds and application” (priority 2011, dated 2015)
# Columns and labels:
# Experiment in all cases: KinomeScan kinase panel
# Type in all cases: binding
# [1] = target: T1, ABL1(H396P)-nonphosphorylated (Homo sapiens, UniProt P00519, H396P)
# T1 construct: purchased DiscoveRx Corporation (KinomeScan)
# Outline: (§1)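 The compound was profiled across a 442-kinase KinomeScan binding panel at a fixed concentration of 1000 nM; values reflect inhibitory effect at that one dose.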
# ULK1 = target: T2, ULK1 (Homo sapiens, UniProt O75385)
# T2 construct: purchased DiscoveRx Corporation (KinomeScan service)
# Outline: as §1
# MAP3K1 = target: T3, MAP3K1 (Homo sapiens, UniProt Q13233)
# T3 construct: purchased DiscoveRx Corporation (KinomeScan)
# Outline: as §1
# PLK3 = target: T4, PLK3 (Homo sapiens, UniProt Q9H4B4)
# T4 construct: purchased DiscoveRx Corporation (KinomeScan)
# Outline: as §1
# MAP3K2 = target: T5, MAP3K2 (Homo sapiens, UniProt Q9Y2U5)
# T5 construct: purchased DiscoveRx Corporation (KinomeScan)
# T5 sequence (Q9Y2U5 whole entry): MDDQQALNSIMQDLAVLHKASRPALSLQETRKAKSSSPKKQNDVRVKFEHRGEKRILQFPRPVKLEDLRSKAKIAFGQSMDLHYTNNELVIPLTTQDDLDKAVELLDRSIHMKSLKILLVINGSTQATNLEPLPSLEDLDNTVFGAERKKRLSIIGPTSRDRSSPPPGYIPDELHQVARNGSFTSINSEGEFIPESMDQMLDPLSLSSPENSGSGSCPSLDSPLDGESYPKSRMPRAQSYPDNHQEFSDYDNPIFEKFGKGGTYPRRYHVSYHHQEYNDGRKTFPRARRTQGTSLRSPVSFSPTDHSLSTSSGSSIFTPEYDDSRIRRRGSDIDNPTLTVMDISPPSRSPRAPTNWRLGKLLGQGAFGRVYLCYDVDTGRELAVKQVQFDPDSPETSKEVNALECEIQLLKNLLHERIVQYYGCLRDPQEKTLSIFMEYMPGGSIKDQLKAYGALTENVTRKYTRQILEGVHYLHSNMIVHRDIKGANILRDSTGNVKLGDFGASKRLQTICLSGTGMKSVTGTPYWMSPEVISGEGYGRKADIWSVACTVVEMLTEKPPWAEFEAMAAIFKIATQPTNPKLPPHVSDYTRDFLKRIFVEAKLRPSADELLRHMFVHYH
# Outline: as §1
# CSK = target: T6, CSK (Homo sapiens, UniProt P41240)
# T6 construct: purchased DiscoveRx Corporation (KinomeScan)
# T6 sequence (P41240 whole entry): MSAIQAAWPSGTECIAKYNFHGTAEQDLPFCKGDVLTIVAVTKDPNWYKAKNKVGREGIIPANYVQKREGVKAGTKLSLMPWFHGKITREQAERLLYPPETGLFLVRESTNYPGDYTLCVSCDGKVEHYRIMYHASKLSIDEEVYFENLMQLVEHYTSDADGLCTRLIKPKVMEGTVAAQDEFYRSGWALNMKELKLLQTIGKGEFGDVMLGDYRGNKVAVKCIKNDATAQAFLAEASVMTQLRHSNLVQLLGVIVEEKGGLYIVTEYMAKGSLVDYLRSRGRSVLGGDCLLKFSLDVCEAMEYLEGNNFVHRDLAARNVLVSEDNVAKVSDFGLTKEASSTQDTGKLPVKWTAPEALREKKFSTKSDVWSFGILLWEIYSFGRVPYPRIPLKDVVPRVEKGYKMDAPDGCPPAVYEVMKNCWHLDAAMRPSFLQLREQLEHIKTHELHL
# Outline: as §1
# FLT3(D835H) = target: T7, FLT3(D835H) (Homo sapiens, UniProt P36888, D835H)
# T7 construct: purchased DiscoveRx Corporation (KinomeScan)
# Outline: as §1
# PIK3CA(C420R) = target: T8, PIK3CA(C420R) (Homo sapiens, UniProt P42336, C420R)
# T8 construct: purchased DiscoveRx Corporation (KinomeScan)
# T8 sequence (P42336 whole entry C420R): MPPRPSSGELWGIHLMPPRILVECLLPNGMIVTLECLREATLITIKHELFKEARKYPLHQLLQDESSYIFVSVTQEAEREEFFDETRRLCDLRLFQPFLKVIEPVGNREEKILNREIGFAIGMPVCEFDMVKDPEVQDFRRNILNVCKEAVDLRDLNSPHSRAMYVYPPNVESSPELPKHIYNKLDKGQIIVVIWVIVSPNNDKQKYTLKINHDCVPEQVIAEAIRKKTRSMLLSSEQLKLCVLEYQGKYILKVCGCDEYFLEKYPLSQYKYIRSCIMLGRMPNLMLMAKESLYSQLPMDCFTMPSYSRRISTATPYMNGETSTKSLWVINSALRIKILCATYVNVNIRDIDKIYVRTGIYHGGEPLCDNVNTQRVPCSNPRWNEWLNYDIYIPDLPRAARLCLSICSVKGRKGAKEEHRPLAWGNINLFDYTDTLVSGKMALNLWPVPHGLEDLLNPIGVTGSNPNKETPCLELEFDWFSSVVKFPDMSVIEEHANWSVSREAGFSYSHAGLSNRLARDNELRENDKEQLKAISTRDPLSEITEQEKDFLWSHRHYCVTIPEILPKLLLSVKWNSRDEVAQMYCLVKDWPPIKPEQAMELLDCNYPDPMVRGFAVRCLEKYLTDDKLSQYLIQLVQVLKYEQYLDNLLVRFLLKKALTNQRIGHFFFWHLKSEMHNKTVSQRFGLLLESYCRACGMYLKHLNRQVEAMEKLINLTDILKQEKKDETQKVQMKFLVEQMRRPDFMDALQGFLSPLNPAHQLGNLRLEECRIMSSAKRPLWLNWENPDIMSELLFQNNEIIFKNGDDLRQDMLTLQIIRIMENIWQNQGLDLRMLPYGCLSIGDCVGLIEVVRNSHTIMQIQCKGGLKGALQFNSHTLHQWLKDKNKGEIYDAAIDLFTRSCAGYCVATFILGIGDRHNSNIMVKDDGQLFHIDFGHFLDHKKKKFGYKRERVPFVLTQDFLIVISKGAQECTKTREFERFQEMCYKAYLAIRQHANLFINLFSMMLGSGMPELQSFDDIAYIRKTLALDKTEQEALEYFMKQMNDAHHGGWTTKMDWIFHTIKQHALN
# Outline: as §1
# CLK4 = target: T9, CLK4 (Homo sapiens, UniProt Q9HAZ1)
# T9 construct: purchased DiscoveRx Corporation (KinomeScan)
# Outline: as §1
# MKK7 = target: T10, MKK7 (Homo sapiens, UniProt O14733)
# T10 construct: purchased DiscoveRx Corporation (KinomeScan)
# Outline: as §1
# GRK7 = target: T11, GRK7 (Homo sapiens, UniProt Q8WTQ7)
# T11 construct: purchased DiscoveRx Corporation (KinomeScan)
# Outline: as §1
# CDK4-cyclinD1 = target: T12, CDK4-cyclinD1 (Homo sapiens, UniProt P11802)
# T12 construct: purchased DiscoveRx Corporation (KinomeScan)
# Outline: as §1
# BRSK1 = target: T13, BRSK1 (Homo sapiens, UniProt Q8TDC3)
# T13 construct: purchased DiscoveRx Corporation (KinomeScan)
# Outline: as §1
# FLT3(N841L) = system: FLT3(N841L)
# Outline: as §1
# BMPR1B = target: T14, BMPR1B (Homo sapiens, UniProt O00238)
# T14 construct: purchased DiscoveRx Corporation (KinomeScan)
# T14 sequence (O00238 14-502): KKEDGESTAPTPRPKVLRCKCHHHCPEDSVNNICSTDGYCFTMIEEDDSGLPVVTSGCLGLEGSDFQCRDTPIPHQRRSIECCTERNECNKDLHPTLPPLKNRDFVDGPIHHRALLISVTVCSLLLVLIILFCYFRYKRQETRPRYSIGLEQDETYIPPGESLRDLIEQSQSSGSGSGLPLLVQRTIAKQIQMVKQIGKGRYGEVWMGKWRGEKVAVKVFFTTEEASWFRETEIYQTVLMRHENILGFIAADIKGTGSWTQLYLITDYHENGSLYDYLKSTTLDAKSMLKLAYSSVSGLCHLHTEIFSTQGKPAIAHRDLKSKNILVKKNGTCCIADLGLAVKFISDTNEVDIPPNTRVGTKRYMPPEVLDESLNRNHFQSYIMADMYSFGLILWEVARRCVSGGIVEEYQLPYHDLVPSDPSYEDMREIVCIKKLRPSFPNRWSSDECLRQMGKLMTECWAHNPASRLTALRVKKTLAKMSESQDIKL
# Outline: as §1
# CDK5 = target: T15, CDK5 (Homo sapiens, UniProt Q00535)
# T15 construct: purchased DiscoveRx Corporation (KinomeScan)
# Outline: as §1
# AURKB = target: T16, AURKB (Homo sapiens, UniProt Q96GD4)
# T16 construct: purchased DiscoveRx Corporation (KinomeScan)
# T16 sequence (Q96GD4 whole entry): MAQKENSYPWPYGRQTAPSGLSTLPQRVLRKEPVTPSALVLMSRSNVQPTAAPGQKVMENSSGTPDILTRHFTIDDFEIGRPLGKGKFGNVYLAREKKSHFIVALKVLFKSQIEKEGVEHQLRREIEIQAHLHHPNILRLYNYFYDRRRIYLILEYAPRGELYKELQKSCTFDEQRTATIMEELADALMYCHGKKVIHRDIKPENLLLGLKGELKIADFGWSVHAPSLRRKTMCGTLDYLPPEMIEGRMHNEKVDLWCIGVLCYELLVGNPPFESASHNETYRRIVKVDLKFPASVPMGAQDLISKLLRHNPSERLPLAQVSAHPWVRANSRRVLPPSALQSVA
# Outline: as §1
# PRKD3 = target: T17, PRKD3 (Homo sapiens, UniProt O94806)
# T17 construct: purchased DiscoveRx Corporation (KinomeScan)
# Outline: as §1
# PRKR = target: T18, PRKR (Homo sapiens, UniProt P19525)
# T18 construct: purchased DiscoveRx Corporation (KinomeScan)
# Outline: as §1
# PRKG2 = target: T19, PRKG2 (Homo sapiens, UniProt Q13237)
# T19 construct: purchased DiscoveRx Corporation (KinomeScan)
# Outline: as §1
# TAOK1 = target: T20, TAOK1 (Homo sapiens, UniProt Q7L7X3)
# T20 construct: purchased DiscoveRx Corporation (KinomeScan)
# Outline: as §1
# RET = target: T21, RET (Homo sapiens, UniProt P07949)
# T21 construct: purchased DiscoveRx Corporation
# T21 sequence (P07949 29-1114): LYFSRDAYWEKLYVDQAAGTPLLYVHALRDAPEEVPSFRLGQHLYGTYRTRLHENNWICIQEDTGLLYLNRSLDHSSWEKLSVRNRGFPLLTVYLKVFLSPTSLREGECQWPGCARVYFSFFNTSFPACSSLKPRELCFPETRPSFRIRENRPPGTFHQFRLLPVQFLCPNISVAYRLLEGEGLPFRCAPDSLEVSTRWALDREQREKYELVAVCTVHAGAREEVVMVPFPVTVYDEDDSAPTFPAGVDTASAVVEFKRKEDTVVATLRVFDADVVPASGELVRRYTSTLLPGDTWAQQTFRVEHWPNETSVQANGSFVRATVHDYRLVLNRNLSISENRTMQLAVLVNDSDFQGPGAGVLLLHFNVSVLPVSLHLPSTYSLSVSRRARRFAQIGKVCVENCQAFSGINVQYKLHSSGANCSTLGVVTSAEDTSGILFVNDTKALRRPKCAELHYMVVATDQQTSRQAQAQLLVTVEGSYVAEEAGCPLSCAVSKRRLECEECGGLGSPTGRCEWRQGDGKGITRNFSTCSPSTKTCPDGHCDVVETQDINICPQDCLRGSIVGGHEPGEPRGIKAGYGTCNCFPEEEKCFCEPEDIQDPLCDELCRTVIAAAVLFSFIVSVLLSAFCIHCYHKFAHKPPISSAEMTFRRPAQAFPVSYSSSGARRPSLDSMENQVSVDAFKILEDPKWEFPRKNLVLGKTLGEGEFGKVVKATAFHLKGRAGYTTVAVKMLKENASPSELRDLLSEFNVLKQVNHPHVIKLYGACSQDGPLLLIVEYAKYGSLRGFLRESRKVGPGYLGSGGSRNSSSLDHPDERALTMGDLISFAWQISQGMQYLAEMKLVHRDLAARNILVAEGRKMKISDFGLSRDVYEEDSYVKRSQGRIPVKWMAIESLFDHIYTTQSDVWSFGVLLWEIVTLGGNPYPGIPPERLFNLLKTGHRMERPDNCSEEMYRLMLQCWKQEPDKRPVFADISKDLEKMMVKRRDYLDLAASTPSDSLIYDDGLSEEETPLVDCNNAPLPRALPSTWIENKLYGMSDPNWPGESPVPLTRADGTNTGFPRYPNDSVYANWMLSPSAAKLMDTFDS
# Outline: as §1
# IGF1R = target: T22, IGF1R (Homo sapiens, UniProt P08069)
# T22 construct: purchased DiscoveRx Corporation (KinomeScan)
# Outline: as §1
# EPHB1 = target: T23, EPHB1 (Homo sapiens, UniProt P54762)
# T23 construct: purchased DiscoveRx Corporation (KinomeScan)
# Outline: as §1
# RET (V804L) = target: T24, RET (V804L) (Homo sapiens, UniProt P07949, V804L)
# T24 construct: purchased DiscoveRx Corporation
# T24 sequence (P07949 29-1114 V804L): as the sequence (P07949 29-1114) above, with V776L counted along it
# Outline: as §1
# ARK5 = target: T25, ARK5 (Homo sapiens, UniProt O60285)
# T25 construct: purchased DiscoveRx Corporation (KinomeScan)
# T25 sequence (O60285 whole entry): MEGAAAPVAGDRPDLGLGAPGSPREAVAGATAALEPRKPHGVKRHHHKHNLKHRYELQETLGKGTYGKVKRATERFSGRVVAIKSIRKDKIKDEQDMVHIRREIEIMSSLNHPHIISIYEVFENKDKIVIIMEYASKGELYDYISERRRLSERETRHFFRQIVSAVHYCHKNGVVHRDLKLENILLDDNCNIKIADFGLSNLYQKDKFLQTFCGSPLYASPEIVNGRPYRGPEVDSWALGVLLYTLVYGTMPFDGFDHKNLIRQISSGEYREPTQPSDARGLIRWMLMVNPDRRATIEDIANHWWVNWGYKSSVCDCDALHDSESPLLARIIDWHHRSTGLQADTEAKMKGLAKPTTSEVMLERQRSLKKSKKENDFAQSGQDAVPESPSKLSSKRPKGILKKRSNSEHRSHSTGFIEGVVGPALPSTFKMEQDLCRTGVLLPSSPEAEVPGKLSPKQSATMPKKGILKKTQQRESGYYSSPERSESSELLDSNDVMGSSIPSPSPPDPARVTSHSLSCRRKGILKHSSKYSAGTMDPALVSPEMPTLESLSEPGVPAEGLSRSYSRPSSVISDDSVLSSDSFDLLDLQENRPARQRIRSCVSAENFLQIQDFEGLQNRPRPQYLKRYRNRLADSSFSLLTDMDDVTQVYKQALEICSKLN
# Outline: as §1
# RIOK3 = target: T26, RIOK3 (Homo sapiens, UniProt O14730)
# T26 construct: purchased DiscoveRx Corporation
# Outline: as §1
# PIK4CB = target: T27, PIK4CB (Homo sapiens, UniProt Q9UBF8)
# T27 construct: purchased DiscoveRx Corporation (KinomeScan)
# Outline: as §1
# RIPK2 = target: T28, RIPK2 (Homo sapiens, UniProt O43353)
# T28 construct: purchased DiscoveRx Corporation
# Outline: as §1
# [2] = target: T29, JAK1(JH2domain-pseudokinase) (Homo sapiens, UniProt P23458)
# T29 construct: JAK1(JH2domain-; purchased DiscoveRx Corporation (KinomeScan)
# T29 sequence (P23458 583-855 limits assumed): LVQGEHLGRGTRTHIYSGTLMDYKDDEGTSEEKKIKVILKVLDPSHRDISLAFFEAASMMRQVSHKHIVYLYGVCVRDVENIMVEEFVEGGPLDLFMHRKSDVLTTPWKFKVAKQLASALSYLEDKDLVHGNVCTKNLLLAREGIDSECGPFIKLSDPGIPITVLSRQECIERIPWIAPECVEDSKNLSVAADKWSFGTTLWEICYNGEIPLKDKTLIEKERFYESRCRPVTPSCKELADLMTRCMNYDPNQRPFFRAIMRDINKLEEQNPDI
# Outline: as §1
# PRKD2 = target: T30, PRKD2 (Homo sapiens, UniProt Q9BZL6)
# T30 construct: purchased DiscoveRx Corporation (KinomeScan)
# Outline: as §1
# [3] = target: T31, RSK1(Kin.Dom.2-C-terminal) (Homo sapiens, UniProt Q15418)
# T31 construct: Kin.Dom.2; purchased DiscoveRx Corporation
# Outline: as §1
# EPHA4 = target: T32, EPHA4 (Homo sapiens, UniProt P54764)
# T32 construct: purchased DiscoveRx Corporation (KinomeScan)
# Outline: as §1
# CSNK1A1 = target: T33, CSNK1A1 (Homo sapiens, UniProt P48729)
# T33 construct: purchased DiscoveRx Corporation (KinomeScan)
# Outline: as §1
# ERBB4 = target: T34, ERBB4 (Homo sapiens, UniProt Q15303)
# T34 construct: purchased DiscoveRx Corporation (KinomeScan)
# Outline: as §1
smiles,measurement,setting,value
"CCOP(=O)(CN1CCC(COc2cc3nccc(Oc4ccc(NC(=O)C5(C(=O)Nc6ccc(F)cc6)CC5)cc4F)c3cc2OC)CC1)OCC [Example 10, N1-[4-[[7-[[1-(diethoxyphosphorylmethyl)-4-piperidinyl]methoxyl]-6-methoxyl-4-quinolyl]oxyl]-3-fluorophenyl]-N1′-(4-fluorophenyl)cyclopropane-1,1-dicarboxamide]",% Ctrl@1000 nM,[1],1.9 % Ctrl
same,% Ctrl@1000 nM,ULK1,100 % Ctrl
same,% Ctrl@1000 nM,MAP3K1,80 % Ctrl
same,% Ctrl@1000 nM,PLK3,100 % Ctrl
same,% Ctrl@1000 nM,MAP3K2,100 % Ctrl
same,% Ctrl@1000 nM,CSK,14 % Ctrl
same,% Ctrl@1000 nM,FLT3(D835H),0.6 % Ctrl
same,% Ctrl@1000 nM,PIK3CA(C420R),100 % Ctrl
same,% Ctrl@1000 nM,CLK4,46 % Ctrl
same,% Ctrl@1000 nM,MKK7,100 % Ctrl
same,% Ctrl@1000 nM,GRK7,100 % Ctrl
same,% Ctrl@1000 nM,CDK4-cyclinD1,100 % Ctrl
same,% Ctrl@1000 nM,BRSK1,100 % Ctrl
same,% Ctrl@1000 nM,FLT3(N841L),0 % Ctrl
same,% Ctrl@1000 nM,BMPR1B,100 % Ctrl
same,% Ctrl@1000 nM,CDK5,100 % Ctrl
same,% Ctrl@1000 nM,AURKB,74 % Ctrl
same,% Ctrl@1000 nM,PRKD3,88 % Ctrl
same,% Ctrl@1000 nM,PRKR,100 % Ctrl
same,% Ctrl@1000 nM,PRKG2,100 % Ctrl
same,% Ctrl@1000 nM,TAOK1,100 % Ctrl
same,% Ctrl@1000 nM,RET,0.1 % Ctrl
same,% Ctrl@1000 nM,IGF1R,94 % Ctrl
same,% Ctrl@1000 nM,EPHB1,4.6 % Ctrl
same,% Ctrl@1000 nM,RET (V804L),0.35 % Ctrl
same,% Ctrl@1000 nM,ARK5,100 % Ctrl
same,% Ctrl@1000 nM,RIOK3,100 % Ctrl
same,% Ctrl@1000 nM,PIK4CB,100 % Ctrl
same,% Ctrl@1000 nM,RIPK2,30 % Ctrl
same,% Ctrl@1000 nM,[2],100 % Ctrl
same,% Ctrl@1000 nM,PRKD2,100 % Ctrl
same,% Ctrl@1000 nM,[3],100 % Ctrl
same,% Ctrl@1000 nM,EPHA4,4 % Ctrl
same,% Ctrl@1000 nM,CSNK1A1,100 % Ctrl
same,% Ctrl@1000 nM,ERBB4,100 % Ctrl
